Converted amounts (≈) assume the structure as drawn.
Each compound was assayed on Staphylococcus aureus (ATCC29213) (assay: Microtitre plate assay, IC90 for bacterial growth, Staphylococcus aureus strain). Details: 90% inhibitory concentration for bacterial growth, 24 hours at 37° C.
Type: cell-based
Description: D.2. In-Vitro Method for Testing Compounds for Anti-Bacterial Activity Against a Non-Mycobacterial Strain
Preparation of Bacterial Suspensions for Susceptibility Testing:
The bacteria used in this study were grown overnight in flasks containing 100 ml Mueller-Hinton Broth (Becton Dickinson—cat. no. 275730) in sterile de-ionized water, with shaking, at 37° C. Stocks (0.5 ml/tube) were stored at −70° C. until use. Bacteria titrations were performed in microtiter plates to detect the TCID50, in which TCID50 represents the dilution that gives rise to bacterial growth in 50% of inoculated cultures. In general, an inoculum level of approximately 100 TCID50 was used for susceptibility testing.
Anti Bacterial Susceptibility Testing: IC90 Determination
Flat-bottom, sterile 96-well plastic microtiter plates were filled with 180 μl of sterile deionized water, supplemented with 0.25% BSA. Subsequently, stock solutions (7.8× final test concentration) of compounds were added in 45 μl volumes in column 2 Serial five-fold dilutions (45 μl in 180 μl) were made directly in the microtiter plates from column 2 to reach column 11. Untreated control samples with (column 1) and without (column 12) inoculum were included in each microtiter plate. Depending on the bacteria type, approximately 10 to 60 CFU per well of bacteria inoculum (100 TCID50), in a volume of 100 μl in 2.8× Mueller-Hinton broth medium, was added to the rows A to H, except column 12. The same volume of broth medium without inoculum was added to column 12 in row A to H. The cultures were incubated at 37° C. for 24 hours under a normal atmosphere (incubator with open air valve and continuous ventilation). At the end of incubation, one day after inoculation, the bacterial growth was quantitated fluorometrically. Therefore resazurin (0.6 mg/ml) was added in a volume of 20 μl to all wells 3 hours after inoculation, and the plates were re-incubated overnight. A change in colour from blue to pink indicated the growth of bacteria. The fluorescence was read in a computer-controlled fluorometer (Cytofluor Biosearch) at an excitation wavelength of 530 nm and an emission wavelength of 590 nm. The % growth inhibition achieved by the compounds was calculated according to standard methods. The IC90 (expressed in μg/ml) was defined as the 90% inhibitory concentration for bacterial growth. The results are shown in Table 7 for an assay using a Staphylococcus aureus strain.

Row | SMILES | IC90 (μg/ml) STA B29213
1 | COc1nc2ccc(-c3ccncc3)cc2cc1C(c1ccccc1)C1(O)CCN(Cc2ccccc2)CC1 (racemic) [Compound 31] | >32.54 µg/mL
2 | CSc1nc2ccccc2cc1C(c1ccccc1)C1(O)CCN(Cc2ccccc2)CC1 (racemic) [Compound 32] | >28.69 µg/mL
3 | COc1nc2ccc(Cl)cc2cc1C(c1ccccc1)C1(O)CCN(Cc2ccccc2)CC1 (racemic) [Compound 33] | 14.96 µg/mL (≈ 31.6 µM)
4 | COc1ccc2nc(OC)c(C(c3ccccc3)C3(O)CCN(Cc4ccccc4)CC3)cc2c1 (racemic) [Compound 34] | >29.57 µg/mL
5 | COc1nc2ccc(-c3ccco3)cc2cc1C(c1ccccc1)C1(O)CCN(Cc2ccccc2)CC1 (racemic) [Compound 37] | >31.84 µg/mL
6 | CSc1nc2ccc(C)cc2cc1C(c1ccccc1)C1(O)CCN(Cc2ccccc2)CC1 (racemic) [Compound 41] | >29.57 µg/mL
7 | COc1nc2cc(Br)ccc2cc1C(c1ccccc1)C1(O)CCN(Cc2ccccc2)CC1 (racemic) [Compound 43] | 20.60 µg/mL (≈ 39.8 µM)
8 | COc1nc2cccc(Br)c2cc1C(c1ccccc1)C1(O)CCN(Cc2ccccc2)CC1 (racemic) [Compound 44] | >32.65 µg/mL
9 | COc1nc2ccc(-c3cccnc3)cc2cc1C(c1ccc(Cl)cc1)C1(O)CCN(Cc2ccccc2)CC1.O=C(O)/C=C/C(=O)O (racemic) [Compound 50] | >43.79 µg/mL
10 | COc1nc2ccc(-c3ccccc3)cc2cc1C(c1ccc(Cl)cc1)C1(O)CCN(Cc2ccccc2)CC1.O=C(O)/C=C/C(=O)O (racemic) [Compound 51] | >42.92 µg/mL
11 | COc1nc2ccccc2cc1C(c1ccc(Cl)cc1)C1(O)CCN(Cc2ccccc2)CC1.O=C(O)/C=C/C(=O)O (racemic) [Compound 52] | 19.77 µg/mL
12 | COc1nc2ccc(-c3ccco3)cc2cc1C(c1ccc(Cl)cc1)C1(O)CCN(Cc2ccccc2)CC1.O=C(O)/C=C/C(=O)O (racemic) [Compound 64] | >43.02 µg/mL
13 | COc1nc2ccc(Br)cc2cc1C(c1ccc(Cl)c(C(F)(F)F)c1)C1(O)CCN(Cc2ccccc2)CC1.O=C(O)/C=C/C(=O)O (racemic) [Compound 66] | >49.51 µg/mL
14 | COc1nc2ccc(Br)cc2cc1C(c1ccccc1Cl)C1(O)CCN(Cc2ccccc2)CC1.O=C(O)/C=C/C(=O)O (racemic) [Compound 67] | >43.98 µg/mL
15 | COc1nc2ccc(-c3ccccc3)cc2cc1C(c1ccc(Cl)cc1)C1(O)CCN(Cc2ccc(C)cc2)CC1.O=C(O)/C=C/C(=O)O (racemic) [Compound 69] | >44.98 µg/mL
16 | COc1nc2ccc(-c3ccco3)cc2cc1C(c1ccc(Cl)cc1)C1(O)CCN(Cc2ccc(C)cc2)CC1.O=C(O)/C=C/C(=O)O (racemic) [Compound 70] | >44.71 µg/mL
17 | COc1nc2ccc(-c3cccnc3)cc2cc1C(c1ccc(Cl)cc1)C1(O)CCN(Cc2ccc(C)cc2)CC1.O=C(O)/C=C/C(=O)O (racemic) [Compound 71] | >44.46 µg/mL
18 | COc1nc2ccc(Br)cc2cc1C(c1ccc(F)cc1)C1(O)CCN(Cc2ccccc2)CC1.O=C(O)/C=C/C(=O)O (racemic) [Compound 72] | 33.82 µg/mL
19 | COc1nc2ccc(Br)cc2cc1C(c1ccccc1F)C1(O)CCN(Cc2ccccc2)CC1 (racemic) [Compound 83] | >33.79 µg/mL
20 | COc1nc2ccc(Br)cc2cc1C(c1cccc(F)c1)C1(O)CCN(Cc2ccccc2)CC1 (racemic) [Compound 84] | >33.79 µg/mL
21 | COc1nc2ccc(-c3ccccc3)cc2cc1C(c1ccc(Cl)cc1)C1(O)CCN(CCc2ccccc2)CC1.O=C(O)/C=C/C(=O)O (racemic) [Compound 89] | >44.39 µg/mL
22 | COc1nc2ccc(Br)cc2cc1C(c1ccccc1)C1(O)CCN(Cc2ccccc2)CC1 (stereo not drawn) [Compound 29] | 32.65 µg/mL (≈ 63.1 µM)
23 | COc1nc2ccc(Br)cc2cc1C(c1ccccc1)C1(O)CCN(C(C)C)CC1 (stereo not drawn) [Compound 30] | >29.62 µg/mL

Row | SMILES | IC90 (μg/ml) STA B29213
24 | COc1nc2ccc(Br)cc2cc1C(c1ccc(Cl)cc1)C1(O)CCN(Cc2ccccc2)CC1.O=C(O)/C=C/C(=O)O (stereo not drawn) [Compound 35] | >43.03 µg/mL
25 | COc1nc2ccc(Br)cc2cc1C(c1ccc(Cl)cc1)C1(O)CCN(Cc2ccccc2)CC1.O=C(O)C(=O)O (stereo not drawn) [Compound 36] | 32.85 µg/mL
26 | COc1nc2ccc(Br)cc2cc1C(c1ccccc1)C1(O)CCN(Cc2cccc(C)c2)CC1 (stereo not drawn) [Compound 38] | >33.54 µg/mL
27 | COc1nc2ccc(Br)cc2cc1C(c1ccc(C)cc1)C1(O)CCN(Cc2ccccc2)CC1 (stereo not drawn) [Compound 39] | 33.54 µg/mL (≈ 63.1 µM)
28 | COc1ccc(C(c2cc3cc(Br)ccc3nc2OC)C2(O)CCN(Cc3ccccc3)CC2)cc1 (stereo not drawn) [Compound 40] | 13.75 µg/mL (≈ 25.1 µM)
29 | COc1nc2ccc(Br)cc2cc1C(c1ccc(Cl)cc1)C1(O)CCNCC1.O=C(O)/C=C/C(=O)O (stereo not drawn) [Compound 45] | 19.23 µg/mL
30 | COc1nc2ccc(Br)cc2cc1C(c1ccc(Cl)cc1)C1(O)CCN(CCc2ccccc2)CC1 (stereo not drawn) [Compound 46] | >35.71 µg/mL
31 | COc1nc2ccc(Br)cc2cc1C(c1ccc(Cl)c(C)c1)C1(O)CCN(Cc2ccccc2)CC1 (stereo not drawn) [Compound 48] | >35.71 µg/mL
32 | COc1nc2ccc(Br)cc2cc1C(c1ccc(Cl)c(C)c1)C1(O)CCN(Cc2ccccc2)CC1.O=C(O)/C=C/C(=O)O (stereo not drawn) [Compound 49] | >44.06 µg/mL
33 | COc1nc2ccc(Br)cc2cc1C(c1ccc(Cl)c(F)c1)C1(O)CCN(Cc2ccccc2)CC1.O=C(O)/C=C/C(=O)O (stereo not drawn) [Compound 53] | >44.89 µg/mL
34 | COc1nc2ccc(Br)cc2cc1C(c1cc2ccccc2o1)C1(O)CCN(Cc2ccccc2)CC1.O=C(O)/C=C/C(=O)O (stereo not drawn) [Compound 54] | >43.45 µg/mL
35 | COc1nc2ccc(Br)cc2cc1C(c1ccc(F)c(C)c1)C1(O)CCN(Cc2ccccc2)CC1.O=C(O)/C=C/C(=O)O (stereo not drawn) [Compound 55] | >43.09 µg/mL
36 | COc1nc2ccc(Br)cc2cc1C(c1ccc2ccccc2c1)C1(O)CCN(Cc2ccccc2)CC1.O=C(O)/C=C/C(=O)O (stereo not drawn) [Compound 56] | >44.60 µg/mL
37 | COc1nc2ccc(Br)cc2cc1C(c1cccnc1)C1(O)CCN(Cc2ccccc2)CC1.O=C(O)/C=C/C(=O)O (stereo not drawn) [Compound 57] | 20.32 µg/mL
38 | COc1nc2ccc(Br)cc2cc1C(c1cccc(Cl)c1)C1(O)CCN(Cc2ccccc2)CC1 (stereo not drawn) [Compound 59] | 17.45 µg/mL (≈ 31.6 µM)
39 | COc1nc2ccc(Br)cc2cc1C(c1cccc(Cl)c1)C1(O)CCN(Cc2ccccc2)CC1.O=C(O)/C=C/C(=O)O (stereo not drawn) [Compound 60] | >43.03 µg/mL
40 | COc1nc2ccc(Br)cc2cc1C(c1ccc(Cl)cc1)C1(O)CCN(Cc2ccccc2C)CC1.O=C(O)/C=C/C(=O)O (stereo not drawn) [Compound 63] | >44.79 µg/mL
41 | COc1nc2ccc(Br)cc2cc1C(c1ccc(Cl)c(Cl)c1)C1(O)CCN(Cc2ccccc2)CC1.O=C(O)/C=C/C(=O)O (stereo not drawn) [Compound 65] | >46.15 µg/mL
42 | COc1nc2ccc(Br)cc2cc1C(c1ccco1)C1(O)CCN(Cc2ccccc2)CC1.O=C(O)/C=C/C(=O)O (stereo not drawn) [Compound 68] | >40.66 µg/mL
43 | C=Cc1ccc2nc(OC)c(C(c3ccc(Cl)cc3)C3(O)CCN(Cc4ccc(C)cc4)CC3)cc2c1.O=C(O)/C=C/C(=O)O (stereo not drawn) [Compound 73] | >41.02 µg/mL
44 | O=c1[nH]c2ccc(Br)cc2cc1C(c1ccc(Cl)cc1)C1(O)CCN(CCc2ccccc2)CC1 (stereo not drawn) [Compound 74] | 6.95 µg/mL (≈ 12.6 µM)
45 | CN(C)c1nc2ccc(Br)cc2cc1C(c1ccc(Cl)cc1)C1(O)CCN(Cc2ccccc2)CC1.O=C(O)/C=C/C(=O)O (stereo not drawn) [Compound 75] | 34.89 µg/mL

Same assay, conditions: 90% inhibitory concentration for bacterial growth, 24 hours at 37° C., read-out: IC90 (μg/ml) STA B29213

Row | SMILES | IC90
46 | COc1nc2ccc(-c3ccccc3)cc2cc1C(c1ccccc1)C1(O)CCN(Cc2ccccc2)CC1 (stereo not drawn) [Compound 4] | > 32.5 µg/mL
47 | COc1nc2ccc(Br)cc2cc1C(c1ccccc1)C1(O)CCN(CCc2ccccc2)CC1 (stereo not drawn) [Compound 5] | 8.42 µg/mL (≈ 15.8 µM)
48 | COc1nc2ccc(Br)cc2cc1[C@@H](c1ccc(Cl)cc1)C1(O)CCN(Cc2ccccc2)CC1 [Compound 7] | > 34.8 µg/mL
49 | COc1nc2ccc(Br)cc2cc1[C@H](c1ccc(Cl)cc1)C1(O)CCN(Cc2ccccc2)CC1 [Compound 8] | > 34.8 µg/mL
50 | COc1nc2ccc(Br)cc2cc1C(c1ccc(Cl)cc1)C1(O)CCNCC1 (stereo not drawn) [Compound 14] | 11.6 µg/mL (≈ 25.1 µM)
51 | COc1nc2ccc(Br)cc2cc1C(c1ccc(Cl)cc1)C1(O)CCN(C2CCN(Cc3ccccc3)CC2)CC1 (stereo not drawn) [Compound 15] | 11.3 µg/mL (≈ 17.7 µM)

Source: US9133167B2, “Antibacterial quinoline derivatives” (JANSSEN PHARMACEUTICA NV, priority 2012, dated 2015)
